Experimental data as given in patent US20090324515A1, “ANTIMICROBIAL FLAVOURING COMPOSITION” (priority 2006, published 2009).
In brackets after ≈: the same amount, converted by molar mass.

Legend:
[1] = test system: Prevotella melaninogenica; test: Determination of minimum inhibitory concentration (microdilution assay); conditions: 72 h, read-out: MIC Prevotella melaninogenica
[2] = test system: Fusobacterium nucleatum DSM 20482; test: as above; conditions: for MIC: Fusobacterium nucleatum, DSM20482, 72 h, read-out: MIC Fusobacterium nucleatum
[3] = test system: Streptococcus mutans DSM 6178; test: as above; conditions: for MIC: Streptococcus mutans, DSM6178, 24 h, read-out: MIC Streptococcus mutans
[4] = test system: Porphyromonas gingivalis DSM 20709; test: as above; conditions: for MIC: Porphyromonas gingivalis, DSM20709, 72 h, read-out: MIC Porphyromonas gingivalis
Staphylococcus aureus = conditions: Amicbase; cited from earlier work
Streptococcus sp. = conditions: Amicbase; cited from earlier work
[5] = test system: Mycobacterium tuberculosis subsp. tuberculosis; conditions: Amicbase; cited from earlier work
Pseudomonas aeruginosa = conditions: Amicbase; cited from earlier work
Proteus mirabilis = conditions: Amicbase; cited from earlier work
Eschericia coli = conditions: Amicbase; cited from earlier work
[6] = 72 h, 37° C., anaerobic, without CO2, average of 3 MIC values

Compound | MIC [2] [µg/mL] | MIC [3] [µg/mL] | MIC [4] [µg/mL] | also measured
CCCCC(C)C(=O)O (centres unmarked) [2-Methylhexanoic acid, 2-methylhexanoic acid] | 500 (≈ 3.84 mM) | ≤ 150 | 1300 (≈ 9.99 mM) | MIC [1]: 1500 µg/mL (≈ 11.5 mM)
Cc1ccc(O)cc1C [3,4-dimethylphenol] | 500 (≈ 4.09 mM) | ≤ 150 | ≤ 150 | MIC (Staphylococcus aureus): 2000 ppm; MIC [1]: 590 µg/mL (≈ 4.83 mM); MIC (Streptococcus sp.): 2000 ppm; MIC [5]: 20 ppm; MIC (Pseudomonas aeruginosa): 4000 ppm; MIC (Proteus mirabilis): 4000 ppm; MIC (Eschericia coli): 4000 ppm
CC(=O)C1=C(C)[C@@H]2C[C@@]3(C1)[C@H](C)CC[C@H]3C2(C)C [Acetyl cedrene, acetyl cedrene] |  |  |  | MIC Fusobacterium nucleatum [2, 6]: 500 ppm; MIC Streptococcus mutans ([3]; 24 h, 37° C., anaerobic, with CO2, average of 3 MIC values): 250 ppm; MIC Porphyromonas gingivalis [4, 6]: 150 or less ppm
CC1=CCC(CCC(C)CO)C1(C)C (centres unmarked) [Brahmanol, 2-methyl-4-(2,2,3-trimethyl-3-cyclopenten-1-yl)-1-butanol] | 250 (≈ 1.27 mM) | 250 (≈ 1.27 mM) | ≤ 150 | 
O=C/C=C/c1ccccc1 [Cinnamic aldehyde, cinnamic aldehyde] | 500 (≈ 3.78 mM) | 250 (≈ 1.89 mM) | ≤ 150 | 
O=C1CCCCCCCCCCCCCC1 [Cyclopenta-decanone, cyclopentadecanone] | 1000 (≈ 4.46 mM) | 1000 (≈ 4.46 mM) | ≤ 150 | 
COC(=O)c1c(C)cc(O)c(C)c1O [Methylatrarate, methyl-2,4-dihydroxy-3,6-dimethyl-benzoate] | ≤ 150 | 1000 (≈ 5.1 mM) | ≤ 150 | 
